Assay: phase 2 study: sudden withdrawal or missed doses of mitapivat, acute hemolysis
Format: in vivo, human
Procedure: Clinical studies have also shown that acute hemolysis with subsequent anemia can occur following abrupt interruption or discontinuation of mitapivat. […] For example, in a phase 2 study with 300 mg of mitapivat dosed twice daily, 3.8% of subjects experienced hemolysis upon sudden withdrawal of mitapivat, including 1 serious adverse event of acute hemolysis. […] Although the exact risk factors which make someone susceptible to acute hemolysis cannot be determined, it appears that the rapid loss of hemoglobin is an issue for these cases. Given the uncertainty as to who is likely to experience signs or symptoms of acute hemolysis (or subsequent anemia), it is important to develop means for mitigating such events.

SMILES: O=C(c1ccc(NS(=O)(=O)c2cccc3cccnc23)cc1)N1CCN(CC2CC2)CC1 [mitapivat, N-(4-(4-(cyclopropylmethyl)piperazine-1-carbonyl)phenyl)quinoline-8-sulfonamide]
- events indicative of acute hemolysis after missed doses (patients who missed only a few doses later in their treatment course): did not experience events indicative of acute hemolysis
- subjects who experienced hemolysis upon sudden withdrawal of mitapivat (phase 2 study, 300 mg mitapivat dosed twice daily, sudden withdrawal): 3.8%
- serious adverse event of acute hemolysis (number of events) (phase 2 study, 300 mg twice daily, sudden withdrawal, included in the 3.8%): 1
